Where “and” joins values, the source holds several entries; their conditions need not be identical. Equal entries are not always repeated. Toxic doses and inconclusive results are not listed. How the source made its calls: active means survival T/C of 150% or more; inactive means T/C below 125% in these data.
Tested on: P388 leukemia ip, CD2F1 mice, survival T/C
Assay: NCI In Vivo Anticancer Drug Screen. Data for tumor model P388 Leukemia (intraperitoneal) in CD2F1 (CDF1) mice
Conditions: endpoint: median survival time, higher = longer survival
Procedure, shortened: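 Mice carrying the transplanted tumor received test compound or vehicle. Survival was recorded in each group, and the value is the treated-group measurement divided by that of the vehicle-treated control group.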

Measured: T/C

COc1cc(NCc2ccc3nc(N)nc(N)c3c2C)cc(OC)c1OC
active: dose: 5.0 mg/kg/injection, schedule: Q01DX009 (ip), vehicle: sodium bicarbonate 154 % of control | dose: 7.2 mg/kg/injection, schedule: Q01DX009 (ip), vehicle: Klucel (hydroxypropylcellulose) (HPC) 154 % of control | dose: 7.5 mg/kg/injection, schedule: Q03HX024 (ip), vehicle: water 184 % of control | dose: 8.64 mg/kg/injection, schedule: Q01DX009 (ip), vehicle: Klucel (hydroxypropylcellulose) (HPC) 157 % of control | dose: 10.0 mg/kg/injection, schedule: Q01DX005 (ip), vehicle: Klucel (hydroxypropylcellulose) (HPC) 171 % of control | dose: 10.0 mg/kg/injection, schedule: Q01DX009 (ip), vehicle: sodium bicarbonate 171 % of control and 174 % of control | dose: 12.0 mg/kg/injection, schedule: Q01DX009 (ip), vehicle: Klucel (hydroxypropylcellulose) (HPC) 173 % of control | dose: 12.0 mg/kg/injection, schedule: Q03HX006 (ip), vehicle: Klucel (hydroxypropylcellulose) (HPC) 150 % of control | dose: 12.5 mg/kg/injection, schedule: Q01DX009 (ip), vehicle: Klucel (hydroxypropylcellulose) (HPC) 172 % of control | dose: 12.5 mg/kg/injection, schedule: Q04DX003 (ip), vehicle: Klucel (hydroxypropylcellulose) (HPC) 180 % of control | dose: 14.4 mg/kg/injection, schedule: Q01DX009 (ip), vehicle: Klucel (hydroxypropylcellulose) (HPC) 175 % of control | dose: 15.0 mg/kg/injection, schedule: Q01DX005 (ip), vehicle: Klucel (hydroxypropylcellulose) (HPC) 152 % of control | dose: 15.0 mg/kg/injection, schedule: Q01DX009 (ip), vehicle: water 153 % of control | dose: 16.8 mg/kg/injection, schedule: Q01DX009 (ip), vehicle: water 170 % of control | dose: 20.0 mg/kg/injection, schedule: Q01DX005 (ip), vehicle: Klucel (hydroxypropylcellulose) (HPC) 202 % of control | dose: 20.0 mg/kg/injection, schedule: Q01DX009 (ip), vehicle: Klucel (hydroxypropylcellulose) (HPC) 207 % of control | dose: 20.0 mg/kg/injection, schedule: Q01DX009 (ip), vehicle: sodium bicarbonate 174 % of control and 222 % of control | dose: 20.0 mg/kg/injection, schedule: Q03HX006 (ip), vehicle: Klucel (hydroxypropylcellulose) (HPC) 154 % of control | dose: 21.6 mg/kg/injection, schedule: Q01DX005 (ip), vehicle: Klucel (hydroxypropylcellulose) (HPC) 152 % of control | dose: 24.0 mg/kg/injection, schedule: Q01DX009 (ip), vehicle: Klucel (hydroxypropylcellulose) (HPC) 181 % of control | dose: 25.0 mg/kg/injection, schedule: Q01DX009 (ip), vehicle: Klucel (hydroxypropylcellulose) (HPC) 200 % of control | dose: 25.0 mg/kg/injection, schedule: Q04DX003 (ip), vehicle: Klucel (hydroxypropylcellulose) (HPC) 192 % of control | dose: 30.0 mg/kg/injection, schedule: Q01DX005 (ip), vehicle: Klucel (hydroxypropylcellulose) (HPC) 189 % of control | dose: 30.0 mg/kg/injection, schedule: Q01DX009 (ip), vehicle: water 170 % of control | dose: 30.0 mg/kg/injection, schedule: Q01DX009 (oral), vehicle: water 161 % of control | dose: 33.3 mg/kg/injection, schedule: Q01DX009 (ip), vehicle: Klucel (hydroxypropylcellulose) (HPC) 218 % of control | dose: 33.3 mg/kg/injection, schedule: Q03HX006 (ip), vehicle: Klucel (hydroxypropylcellulose) (HPC) 159 % of control | dose: 33.6 mg/kg/injection, schedule: Q01DX009 (ip), vehicle: water 175 % of control | dose: 36.0 mg/kg/injection, schedule: Q01DX005 (ip), vehicle: Klucel (hydroxypropylcellulose) (HPC) 195 % of control | dose: 40.0 mg/kg/injection, schedule: Q01DX005 (ip), vehicle: Klucel (hydroxypropylcellulose) (HPC) 240 % of control | dose: 50.0 mg/kg/injection, schedule: Q01DX009 (ip), vehicle: Klucel (hydroxypropylcellulose) (HPC) 225 % of control | dose: 50.0 mg/kg/injection, schedule: Q01DX009 (oral), vehicle: sodium bicarbonate 191 % of control | dose: 50.0 mg/kg/injection, schedule: Q04DX003 (ip), vehicle: Klucel (hydroxypropylcellulose) (HPC) 201 % of control | dose: 60.0 mg/kg/injection, schedule: Q01DX005 (ip), vehicle: Klucel (hydroxypropylcellulose) (HPC) 176 % of control and 198 % of control | dose: 60.0 mg/kg/injection, schedule: Q01DX005 (oral), vehicle: water 153 % of control | dose: 60.0 mg/kg/injection, schedule: Q01DX009 (ip), vehicle: water 170 % of control | dose: 60.0 mg/kg/injection, schedule: Q04DX002 (ip), vehicle: Klucel (hydroxypropylcellulose) (HPC) 151 % of control | dose: 100.0 mg/kg/injection, schedule: Q04DX002 (ip), vehicle: Klucel (hydroxypropylcellulose) (HPC) 211 % of control | dose: 100.0 mg/kg/injection, schedule: Q04DX003 (ip), vehicle: Klucel (hydroxypropylcellulose) (HPC) 230 % of control | dose: 120.0 mg/kg/injection, schedule: Q01DX005 (oral), vehicle: water 170 % of control | dose: 480.0 mg/kg/injection, schedule: Q01DX001 (oral), vehicle: water 157 % of control
242 % of control and 91 % of control: dose: 40.0 mg/kg/injection, schedule: Q01DX009 (ip), vehicle: sodium bicarbonate
inactive: dose: 1.56 mg/kg/injection, schedule: Q01DX009 (ip), vehicle: Klucel (hydroxypropylcellulose) (HPC) 112 % of control | dose: 1.56 mg/kg/injection, schedule: Q01DX009 (ip), vehicle: clinical formulation 111 % of control | dose: 1.88 mg/kg/injection, schedule: Q01DX005 (ip), vehicle: Klucel (hydroxypropylcellulose) (HPC) 121 % of control | dose: 1.88 mg/kg/injection, schedule: Q01DX005 (ip), vehicle: clinical formulation 102 % of control | dose: 1.88 mg/kg/injection, schedule: Q01DX005 (iv), vehicle: clinical formulation 102 % of control | dose: 2.1 mg/kg/injection, schedule: Q01DX009 (ip), vehicle: water 116 % of control | dose: 2.5 mg/kg/injection, schedule: Q01DX009 (ip), vehicle: sodium bicarbonate 124 % of control | dose: 2.52 mg/kg/injection, schedule: Q01DX005 (iv), vehicle: water 103 % of control | dose: 3.12 mg/kg/injection, schedule: Q01DX009 (ip), vehicle: Klucel (hydroxypropylcellulose) (HPC) 124 % of control | dose: 3.12 mg/kg/injection, schedule: Q01DX009 (ip), vehicle: clinical formulation 109 % of control | dose: 3.75 mg/kg/injection, schedule: Q01DX005 (ip), vehicle: Klucel (hydroxypropylcellulose) (HPC) 124 % of control | dose: 3.75 mg/kg/injection, schedule: Q01DX005 (ip), vehicle: clinical formulation 100 % of control | dose: 3.75 mg/kg/injection, schedule: Q01DX005 (iv), vehicle: clinical formulation 103 % of control | dose: 4.19 mg/kg/injection, schedule: Q01DX009 (ip), vehicle: water 120 % of control | dose: 5.03 mg/kg/injection, schedule: Q01DX005 (iv), vehicle: water 101 % of control | dose: 6.25 mg/kg/injection, schedule: Q01DX009 (ip), vehicle: clinical formulation 109 % of control | dose: 7.5 mg/kg/injection, schedule: Q01DX005 (ip), vehicle: clinical formulation 100 % of control | dose: 7.5 mg/kg/injection, schedule: Q01DX005 (ip), vehicle: water 123 % of control | dose: 7.5 mg/kg/injection, schedule: Q01DX005 (iv), vehicle: clinical formulation 106 % of control | dose: 7.5 mg/kg/injection, schedule: Q01DX005 (iv), vehicle: water 117 % of control | dose: 7.5 mg/kg/injection, schedule: Q03HX008 (ip), vehicle: water 124 % of control | dose: 10.1 mg/kg/injection, schedule: Q01DX005 (iv), vehicle: water 106 % of control | dose: 12.5 mg/kg/injection, schedule: Q01DX009 (ip), vehicle: clinical formulation 111 % of control | dose: 12.5 mg/kg/injection, schedule: Q01DX009 (oral), vehicle: sodium bicarbonate 110 % of control and 111 % of control | dose: 13.0 mg/kg/injection, schedule: Q04DX002 (ip), vehicle: Klucel (hydroxypropylcellulose) (HPC) 120 % of control | dose: 15.0 mg/kg/injection, schedule: Q01DX005 (ip), vehicle: clinical formulation 103 % of control | dose: 15.0 mg/kg/injection, schedule: Q01DX005 (iv), vehicle: clinical formulation 102 % of control | dose: 15.0 mg/kg/injection, schedule: Q01DX005 (oral), vehicle: water 112 % of control | dose: 20.1 mg/kg/injection, schedule: Q01DX005 (iv), vehicle: water 120 % of control | dose: 25.0 mg/kg/injection, schedule: Q01DX009 (ip), vehicle: clinical formulation 109 % of control | dose: 25.0 mg/kg/injection, schedule: Q01DX009 (oral), vehicle: sodium bicarbonate 112 % of control | dose: 30.0 mg/kg/injection, schedule: Q01DX001 (ip), vehicle: water 108 % of control | dose: 30.0 mg/kg/injection, schedule: Q01DX001 (iv), vehicle: water 111 % of control | dose: 30.0 mg/kg/injection, schedule: Q01DX005 (ip), vehicle: clinical formulation 100 % of control | dose: 30.0 mg/kg/injection, schedule: Q01DX005 (iv), vehicle: clinical formulation 105 % of control | dose: 30.0 mg/kg/injection, schedule: Q04DX003 (ip), vehicle: water 123 % of control | dose: 40.0 mg/kg/injection, schedule: Q01DX009 (ip), vehicle: Klucel (hydroxypropylcellulose) (HPC) 102 % of control | dose: 50.0 mg/kg/injection, schedule: Q01DX009 (ip), vehicle: clinical formulation 118 % of control | dose: 60.0 mg/kg/injection, schedule: Q01DX001 (ip), vehicle: water 104 % of control | dose: 60.0 mg/kg/injection, schedule: Q01DX001 (iv), vehicle: water 113 % of control | dose: 60.0 mg/kg/injection, schedule: Q01DX001 (oral), vehicle: water 120 % of control | dose: 60.0 mg/kg/injection, schedule: Q01DX005 (ip), vehicle: clinical formulation 100 % of control | dose: 60.0 mg/kg/injection, schedule: Q03HX008 (ip), vehicle: water 120 % of control | dose: 60.0 mg/kg/injection, schedule: Q03HX024 (ip), vehicle: water 115 % of control | dose: 60.0 mg/kg/injection, schedule: Q04DX003 (ip), vehicle: water 115 % of control | dose: 80.0 mg/kg/injection, schedule: Q01DX005 (ip), vehicle: Klucel (hydroxypropylcellulose) (HPC) 96 % of control | dose: 100.0 mg/kg/injection, schedule: Q01DX005 (ip), vehicle: Klucel (hydroxypropylcellulose) (HPC) 116 % of control | dose: 100.0 mg/kg/injection, schedule: Q01DX009 (oral), vehicle: sodium bicarbonate 94 % of control | dose: 120.0 mg/kg/injection, schedule: Q01DX001 (ip), vehicle: water 106 % of control | dose: 120.0 mg/kg/injection, schedule: Q01DX001 (oral), vehicle: water 115 % of control | dose: 120.0 mg/kg/injection, schedule: Q04DX003 (ip), vehicle: water 118 % of control | dose: 200.0 mg/kg/injection, schedule: Q04DX003 (ip), vehicle: Klucel (hydroxypropylcellulose) (HPC) 103 % of control | dose: 240.0 mg/kg/injection, schedule: Q01DX001 (oral), vehicle: water 124 % of control

Reference: PubChem BioAssay AID330 (DTP/NCI, 2004)
